Experimental data taken from patent US9061003B2, “Therapeutic or preventive agent for diabetes” (NITTA GELATIN INC., priority 2011, dated 2015).
Square brackets hold non-standard residues; d marks the D form. Peptide text beside a SMILES is read from it. Hyp = O=C(O)[C@@H]1C[C@@H](O)CN1

Molecular target: T1, DPPIV enzyme; human recombinant (Homo sapiens, UniProt P27487)
T1 construct: purchased BIOMOL E434-9090 (kit AK-499)
Assay: DPPIV inhibitory activity (DPPIV Drug Discovery Kit-AK-499, H-Gly-Pro-AMC substrate)
Type: biochemical
Settings: discussion of results
Experimental: DPPIV inhibitory activity was determined by using a DPPIV inhibitory activity measuring kit “DPPIV Drug Discovery Kit-AK-499” (manufactured by BIOMOL). […] Inhibitory activity was evaluated by the concentration at which 50% of DPPIV activity was inhibited.

T1 sequence (P27487 whole entry): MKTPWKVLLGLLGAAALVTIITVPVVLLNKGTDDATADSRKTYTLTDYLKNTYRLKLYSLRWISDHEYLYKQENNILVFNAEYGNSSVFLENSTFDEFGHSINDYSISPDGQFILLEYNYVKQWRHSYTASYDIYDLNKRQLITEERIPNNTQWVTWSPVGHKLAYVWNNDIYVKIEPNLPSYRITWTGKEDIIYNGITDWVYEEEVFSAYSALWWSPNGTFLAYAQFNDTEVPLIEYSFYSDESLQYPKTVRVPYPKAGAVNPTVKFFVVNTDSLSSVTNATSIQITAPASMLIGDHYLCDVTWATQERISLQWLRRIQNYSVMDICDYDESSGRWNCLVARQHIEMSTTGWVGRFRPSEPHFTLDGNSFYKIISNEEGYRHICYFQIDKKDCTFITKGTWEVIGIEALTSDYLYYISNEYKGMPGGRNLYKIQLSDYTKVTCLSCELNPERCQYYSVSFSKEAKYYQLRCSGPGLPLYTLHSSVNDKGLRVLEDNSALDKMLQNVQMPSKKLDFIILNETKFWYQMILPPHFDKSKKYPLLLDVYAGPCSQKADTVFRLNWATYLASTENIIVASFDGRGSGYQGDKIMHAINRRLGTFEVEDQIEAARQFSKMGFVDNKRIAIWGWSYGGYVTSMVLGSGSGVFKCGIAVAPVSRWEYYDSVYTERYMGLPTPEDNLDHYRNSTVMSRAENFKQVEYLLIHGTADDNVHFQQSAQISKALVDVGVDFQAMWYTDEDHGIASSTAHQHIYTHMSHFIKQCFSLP

DPPIV inhibitory activity (in words)	SMILES
high DPPIV inhibitory activity	C[C@H](N)C(=O)N1C[C@H](O)C[C@H]1C(=O)NCC(=O)O [AOG, Ala-Hyp-Gly] (H-Ala-[Hyp]-Gly-OH; N-terminus and C-terminus assumed)
high DPPIV inhibitory activity	N[C@@H](CCC(=O)O)C(=O)N1C[C@H](O)C[C@H]1C(=O)O [EO, Glu-Hyp] (H-Glu-[Hyp]-OH; N-terminus and C-terminus assumed)
high DPPIV inhibitory activity	N[C@@H](CCC(=O)O)C(=O)N1C[C@H](O)C[C@H]1C(=O)NCC(=O)O [EOG, Glu-Hyp-Gly] (H-Glu-[Hyp]-Gly-OH; N-terminus and C-terminus assumed)
high DPPIV inhibitory activity	CC[C@H](C)[C@H](N)C(=O)N1C[C@H](O)C[C@H]1C(=O)O [IO, Ile-Hyp] (H-Ile-[Hyp]-OH; N-terminus and C-terminus assumed)

Same assay, conditions: peptides; human recombinant DPPIV

IC50 (concentration at which 50% of DPPIV activity was inhibited) [µM]	SMILES
6000	C[C@H](N)C(=O)N1C[C@H](O)C[C@H]1C(=O)NCC(=O)O [AOG, Ala-Hyp-Gly] (H-Ala-[Hyp]-Gly-OH; N-terminus and C-terminus assumed)
1500	N[C@@H](CCC(=O)O)C(=O)N1C[C@H](O)C[C@H]1C(=O)O [EO, Glu-Hyp] (H-Glu-[Hyp]-OH; N-terminus and C-terminus assumed)
2900	N[C@@H](CCC(=O)O)C(=O)N1C[C@H](O)C[C@H]1C(=O)NCC(=O)O [EOG, Glu-Hyp-Gly] (H-Glu-[Hyp]-Gly-OH; N-terminus and C-terminus assumed)
2900	CC[C@H](C)[C@H](N)C(=O)N1C[C@H](O)C[C@H]1C(=O)O [IO, Ile-Hyp] (H-Ile-[Hyp]-OH; N-terminus and C-terminus assumed)

Tested on: Human-derived intestinal tract L cells (NCI-H716 cell)
Assay: not given
Type: cell-based
Settings: discussion of results
Experimental: Human-derived intestinal tract L cells (NCI-H716 cell: manufactured by ATCC) were inoculated at 5×10^5 cells/mL×200 μL (1×10^5 cells/well) in a RPIM medium containing 10% FBS (manufactured by ATCC) on a Pre-coated poly-L-lysin plate (96 wells plate) and cultured for 2 days. After confirming that the cells were adhered to the plate, the medium was replaced by a test medium (146 mM NaCl, 5 mM KCl, 1.5 mM CaCl2, 1 mM MgSO4, 20 mM HEPES, 5.6 mM glucose, 2 mg/mL BSA) and a sample was added at a final concentration of 5 mM. A culture supernatant after 1 hour was 30-fold diluted with PBS, and tested with GLP-1 ELISA kit (manufactured by Levis) according to the protocol.
Based on GLP-1 secretion in the case not added with the sample (Blank) as 100%, a GLP-1 secretion accelerating percentage in the fraction added with 5 mM sample was calculated.

SMILES	GLP-1 secretion accelerating activity (in words)
C[C@H](N)C(=O)N1C[C@H](O)C[C@H]1C(=O)NCC(=O)O [AOG, Ala-Hyp-Gly] (H-Ala-[Hyp]-Gly-OH; N-terminus and C-terminus assumed)	have GLP-1 secretion accelerating activity
N[C@@H](CCC(=O)O)C(=O)N1C[C@H](O)C[C@H]1C(=O)O [EO, Glu-Hyp] (H-Glu-[Hyp]-OH; N-terminus and C-terminus assumed)	have GLP-1 secretion accelerating activity
N[C@@H](CCC(=O)O)C(=O)N1C[C@H](O)C[C@H]1C(=O)NCC(=O)O [EOG, Glu-Hyp-Gly] (H-Glu-[Hyp]-Gly-OH; N-terminus and C-terminus assumed)	have GLP-1 secretion accelerating activity

Same assay, conditions: peptides; 5 mM sample, 1 hour, NCI-H716 cells, Blank = 100%, n = 4

SMILES	GLP-1 secretion accelerating percentage [%]
C[C@H](N)C(=O)N1C[C@H](O)C[C@H]1C(=O)NCC(=O)O [AOG, Ala-Hyp-Gly] (H-Ala-[Hyp]-Gly-OH; N-terminus and C-terminus assumed)	120 ± 5
N[C@@H](CCC(=O)O)C(=O)N1C[C@H](O)C[C@H]1C(=O)O [EO, Glu-Hyp] (H-Glu-[Hyp]-OH; N-terminus and C-terminus assumed)	148 ± 66
N[C@@H](CCC(=O)O)C(=O)N1C[C@H](O)C[C@H]1C(=O)NCC(=O)O [EOG, Glu-Hyp-Gly] (H-Glu-[Hyp]-Gly-OH; N-terminus and C-terminus assumed)	307 ± 84

Tested on: not listed separately
Assay: Intestinal tract absorptivity (intragastric administration, portal vein perfusate, LC/MS/MS)
Type: in vivo, Wistar rats
Settings: male, Wistar, rat, in vivo, po, 215 nmol/10 mL
Experimental: Male Wistar rats (170 g) were fasted overnight before subjected to the experiment. As a test sample, 215 nmol/10 mL of each of the peptides was used, and intragastrically administered. As a test method, heart and portal vein of each rat were attached with a cannula to make one-directional perfusion. […] To a perfusion sample solution (5.0 mL) collected from the portal vein was added 0.5 mL of 30% sulfosalicylic acid and stirred vigorously, and left overnight in a refrigerator. This sample was centrifuged at 3000 rpm for 10 minutes, to remove protein. For the supernatant of centrifugation, an amount of hydroxyproline in 0.5 mL was colorimetrically quantified, and an amount of free-type Hyp was obtained. […] After concentrating and drying the resultant in an evaporator, and removing the hydrochloric acid, the solid was dissolved in 5 mL of distilled water, and several drops of a saturated lithium hydroxide solution was added thereto to adjust pH at 5 to 7, and the volume was fixed at 10 mL. […] The value obtained by subtracting the amount of free-type Hyp before hydrolysis from the total Hyp amount after hydrolysis is an amount of peptide-form Hyp. From this amount of peptide-form Hyp, a quantitative value of absorption of each peptide into rat portal vein perfusate in the test sample was first determined. The colorimetric quantification of the amount of hydroxyproline was conducted by a […] and Shill method, and was concretely conducted in the following manner. That is, 2 mL of 2-propanol was added to 2 mL of a sample solution and stirred thoroughly. Then, 0.5 mL of a chloramine T liquid being an oxidizing agent was added to the mixture, and left still for accurately 4 minutes, and then cooled on ice. Then, 5 mL of a p-dimethylaminobenzaldehyde solution was added to the mixture and stirred thoroughly, and then heated in a boiling water bath for accurately 2 minutes. Then, the reaction was immediately cooled on ice, and left still for 1 hour, and then colorimetrically quantified at a wavelength of 575 nm. […] Further, the p-dimethylaminobenzaldehyde solution (Erich solution) was prepared by dissolving 20 g of p-dimethylaminobenzaldehyde powder in 22 mL of concentrated hydrochloric acid under heating in boiling water, and immediately cooling the same in ice water, and adding 122 mL of 2-propanol and dissolving it under stirring. Next, peptides collected in the rat portal vein perfusate, namely the aforementioned intestinally absorbed peptides were identified and quantified by the following HPLC analysis and mass spectrometry (LC/MS/MS). Analysis of the peptide in the perfusate was conducted by reverse-phase HPLC analysis. As a HPLC device, an LCSS-905 system manufactured by JASCO Corporation, consisting of a liquid feeding pump, a degasser, an automatic sampler, a column open, a UV spectrophotometer, a printer, and a system controller was used. As a reverse-phase column, Nova Pak C18 (3.9×150 mm) was used. […] As a HPLC device, U980HPLC (manufactured by JASCO Corporation) attached with an ODS(C18) column (Mightysil RP-18, 2×250 mm, manufactured by Kanto Chemical Co., Ltd.) was used. As a mobile phase solvent, a 0.2% formic acid-containing acetonitrile-water system was used, and the concentration of acetonitrile was increased from 0% to 40% over 40 minutes by a linear gradient, and it was washed with 100% acetonitrile for 10 minutes. […] MS analysis was conducted by a MS/MS system using a Quattro LC mass spectrophotometer (Micromass, Manchester, UK) according to a four-channel Multiple Reaction Monitoring method. To be more specific, the elute from HPLC was monitored by m/z being [M+H]^+ and by m/z of its fragment ion species. At this time, [M+H]^+ m/z was monitored using 302.2>189.4 for LOG; 286.1>189.3 for POG; 187.1>70.3 for PA; 261.1>243.4 for EO, 245.1>132.3 for LO; 245.2>132.1 for IO; 318.1>225.4 for EOG; 276.1>189.4 for SOG; 219.1>132.2 for SO; and 260.1>189.4 for AOG.

level at time molar [µM]	SMILES
156 ± 1.3	N[C@@H](CCC(=O)O)C(=O)N1C[C@H](O)C[C@H]1C(=O)O [EO, Glu-Hyp] (H-Glu-[Hyp]-OH; N-terminus and C-terminus assumed)
110 ± 0.9	N[C@@H](CCC(=O)O)C(=O)N1C[C@H](O)C[C@H]1C(=O)NCC(=O)O [EOG, Glu-Hyp-Gly] (H-Glu-[Hyp]-Gly-OH; N-terminus and C-terminus assumed)
163 ± 1.9	CC[C@H](C)[C@H](N)C(=O)N1C[C@H](O)C[C@H]1C(=O)O [IO, Ile-Hyp] (H-Ile-[Hyp]-OH; N-terminus and C-terminus assumed)

Same assay, conditions: rat, po; male Wistar rats, 215 nmol/10 mL intragastrically, portal vein perfusate; read-out: Amount of peptide identified after absorption

level at time molar [µM]	SMILES
66.7 ± 1.3	C[C@H](N)C(=O)N1C[C@H](O)C[C@H]1C(=O)NCC(=O)O [AOG, Ala-Hyp-Gly] (H-Ala-[Hyp]-Gly-OH; N-terminus and C-terminus assumed)
